{"source": "patent US10105437B2", "about": "“Epitopes related to coeliac disease” (BTG International Limited, priority 2004, dated 2018)", "type_in_all_cases": "cell-based, human", "key": {"[1]": {"system": "PBMC from HLA DQ8+DQ2- CD subjects", "test": "Interferon gamma ELISPOT, glutenin 20mer library in HLA DQ8 subjects", "details": "tTG-pretreated glutenin 20mers sharing the motif or sequence", "text": "PBMC from two subjects initially challenged were used to screen the first round “Melbourne” wheat gliadin 20mer library. The 20mer sequences identified using PBMC from these two HLA DQ8 CD subjects were dissected further by screening, in five HLA DQ8+DQ2− CD subjects including the two original subjects, a second round library based on reactive 20mers in the 1st round library. The 2nd round library consisted of screening grade overlapping 16mers, and 13mers predicted to correspond to tTG-mediated deamidation products of epitopes with the potential for deamidation of glutamine at position 1 and/or position 9 (consistent with the HLA DQ8 peptide binding motif). In addition, the 1400 glutenin (HMW and LMW) tTG-pretreated 20mers in the “Melbourne” wheat gluten library were also screened in these five subjects.\nDominant 20mer peptides shared the motifs or had the sequences: PQQQQQQLVQQQ (SEQ ID NO: 1917), QGIFLQPH(LQ)I(AS)QLEV (SEQ ID NO: 1918), QPGQGQQG(HY)Y (SEQ ID NO: 1919), QSRYEAIRAII(FY)S (SEQ ID NO: 1920), RTTTSVPFD (SEQ ID NO: 1921), QPPFWRQQP (SEQ ID NO: 1922), Q(PS)(PS)(FI)(PS) QQQQ (SEQ ID NO: 1923), (QPLR)GYYPTSPQ (SEQ ID NO: 1924) (previously identified HLA DQ8 epitope, van der Wal 2001), QGSYYPGQASPQ (SEQ ID NO: 1925), […] (SEQ ID NO: 1926), and […] (SEQ ID NO: 1927). Glutenin peptides were assessed after pre-treatment with transglutaminase."}, "[2]": {"system": "PBMC from HLA-DQ2+ coeliac subjects", "test": "Interferon gamma ELISPOT, third round wheat peptide library", "details": "following deamidation by tTG; 14 subjects; wheat challenge", "procedure": "(§1) IFNγ ELISpot assays (Mabtech, Sweden) were performed in 96-well plates (MAIP S-45, Millipore) in which each well contained 25 mcl of peptide solution and 100 mcl of PBMC (2-8×10^5/well) in RPMI containing 10% heat inactivated human AB serum. After development and drying, IFNγ ELISpot plates were assessed using the MAIP automated ELISpot plate counter. Data was then analysed according to a novel algorithm (Expectation Maximization: EM) to define and quantify interferon-gamma responses to 9mer sequences contained within the peptide library (see FIG. 3 and below). 9mer peptides were then rationalised according to an algorithm that assumes redundancy in T-cell recognition, the “IterativeCluster” algorithm (see FIG. 4 and below), by allowing groups of amino acids with similar chemical properties at any one position in the 9mer, or for glutamate to replace glutamine at any position (assuming deamidation may have occurred).\nThe third round peptide library consisted of 74 peptides based upon structurally distinct sequences in the second round library found to induce at least 10% of the maximal response to any peptide in any subject. These peptides corresponded to wild-type (non-deamidated) sequences virtually identical to those used in the second round library. The distinct feature of this library was that it consisted of peptides with purity verified by HPLC as >80%, and with sequences confirmed by mass spectroscopy.\nInterferon gamma ELSIPOT responses to the 3rd round library peptides following deamidation by tTG were compared in 14 subjects. Once again, sequences including the PQPQLPY motif (SEQ ID NO: 1937) were “dominant” in 9/14 subjects. However PFPQPQQPFPW (SEQ ID NO: 1894) stimulated >70% of maximal response in 1/14 subjects, PFPQQPQQPFPQ (SEQ ID NO: 1895) in 1/14, PQPFLPQLPYPQP (SEQ ID NO: 1896) in 1/14, QPFPQPQQPQQP (SEQ ID NO: 1897) in 4/14 (including 3 subjects in whom PQPQLPY peptides (SEQ ID NO: 1937) were not potent epitopes) SGQGVSQSQQQSQQQ (SEQ ID NO: 1898) in 2/14 (including one in which PQPQLPY peptides (SEQ ID NO: 1937) were not potent), QYEVIRSLVLRTLPNM (SEQ ID NO: 1899) and GLARSQMLQQSICHVG (SEQ ID NO: 1900) each in one (the same) subject in whom PQPQLPY peptides (SEQ ID NO: 1937) were not potent epitopes, RTTTSVPFGVGTGVGA (SEQ ID NO: 1901) in 1/14 subjects and AIHTVIHSIIMQQEQQ (SEQ ID NO: 1902) in 1/14 subjects."}, "[3]": {"system": "PBMC from subjects with DQ2+ coeliac disease", "test": "Interferon gamma ELISPOT, high grade avenin peptides after oats challenge", "details": "for subjects in whom peptide was dominant (>70% maximal response) after oats challenge: day 6 PBMC", "procedure": "as §1\nHigh grade avenin peptides were assessed 3 days after completing oats challenge with pure wheat-free oats, 100 g/d for 3 days (“day 6” PBMC interferon gamma ELISPOT responses). These peptides were designed upon peptides previously defined using the screening grade (“first round”) avenin peptide library and on potential deamidation sites. There were 25 peptides (as 16mers) with purity verified by HPLC as >80%, and sequences confirmed by mass spectroscopy.\nInterferon gamma ELISPOT responses to the high grade avenin peptides following deamidation by tTG were compared in 18 subjects with DQ2+ coeliac disease."}, "[4]": {"system": "PBMC from HLA DQ2 coeliac disease subjects", "test": "Interferon gamma ELISPOT, combitope comparison after wheat, rye or barley challenge", "details": "for median ELISPOT response as percent of response to Combitope: after wheat challenge, n=16 subjects", "text": "The issue of epitope redundancy and the potential utility in diagnostics and therapeutics of peptides designed to combine “unique” dominant epitopes was addressed by comparing interferon gamma ELISPOT responses after wheat (n=16 HLA DQ2 coeliac disease subjects), rye (n=17) or barley (n=13) challenge to the sequences: QLQPFPQPELPYPQPQL (SEQ ID NO: 1903) (“P04724E”), QPEQPFPQPEQPFPWQP (SEQ ID NO: 1904) (“626fEE”), and […] (SEQ ID NO: 1905) (“Combitope”). After rye and barley challenge the sum of the median ELISPOT responses (spot forming units) to P04724E and 626fEE were almost identical (99%, and 102%, respectively) to the response to a similar (optimal) concentration of the Combitope. However, after wheat challenge (n=16 subjects), median P04724E response was 89% of that to Combitope, and median 626fEE responses was 70% of the response to Combitope."}, "[5]": {"details": "after oats challenge, deamidated by tTG, 18 subjects"}}, "data": [{"substance": "(QPLR)GYYPTSPQ: previously identified HLA DQ8 epitope, van der Wal 2001 [reference compound]", "values": [{"measurement": "dominance among five subjects", "setting": "[1]", "result": "dominant in at least one of the five subjects"}]}, {"substance": "AIHTVIHSIIMQQEQQ (Description of Artificial Sequence: Synthetic gluten peptide)", "values": [{"measurement": "subjects in whom peptide stimulated >70% of maximal response (dominant)", "setting": "[2]", "result": "1/14"}]}, {"substance": "EQQFGQNIFSGFSVQL (Description of Artificial Sequence: Synthetic gluten peptide)", "values": [{"measurement": "subjects in whom peptide was dominant (>70% maximal response) after oats challenge", "setting": "[3]; deamidated by tTG, 18 subjects", "result": "11/18"}]}, {"substance": "EQYQPEQQPFMQPL (Description of Artificial Sequence: Synthetic gluten peptide)", "values": [{"measurement": "subjects with >40% maximal peptide response", "setting": "[3]; [5]", "result": "5/18"}]}, {"substance": "GLARSQMLQQSICHVG (Description of Artificial Sequence: Synthetic gluten peptide)", "values": [{"measurement": "subjects in whom peptide stimulated >70% of maximal response (dominant)", "setting": "[2]", "result": "one"}]}, {"substance": "GYYPTSSLQPEQGQQGYYPT (Description of Artificial Sequence: Synthetic gluten peptide) [glutenin 20mer, HLA DQ8]", "values": [{"measurement": "dominance among five subjects", "setting": "[1]", "result": "dominant in at least one of the five subjects"}]}, {"substance": "PFPQPQQPFPW (Description of Artificial Sequence: Synthetic gluten peptide)", "values": [{"measurement": "subjects in whom peptide stimulated >70% of maximal response (dominant)", "setting": "[2]", "result": "1/14"}]}, {"substance": "PFPQQPQQPFPQ (Description of Artificial Sequence: Synthetic gluten peptide)", "values": [{"measurement": "subjects in whom peptide stimulated >70% of maximal response (dominant)", "setting": "[2]", "result": "1/14"}]}, {"substance": "PQPFLPQLPYPQP (Description of Artificial Sequence: Synthetic gluten peptide)", "values": [{"measurement": "subjects in whom peptide stimulated >70% of maximal response (dominant)", "setting": "[2]", "result": "1/14"}]}, {"substance": "PQQQQQQLVQQQ (Description of Artificial Sequence: Synthetic gluten peptide) [motif of dominant glutenin 20mers, HLA DQ8]", "values": [{"measurement": "dominance among five subjects", "setting": "[1]", "result": "dominant in at least one of the five subjects"}]}, {"substance": "QGQQLAQGQQGQQPAQVQQG (Description of Artificial Sequence: Synthetic gluten peptide) [glutenin 20mer, HLA DQ8]", "values": [{"measurement": "dominance among five subjects", "setting": "[1]", "result": "dominant in at least one of the five subjects"}]}, {"substance": "QGSYYPGQASPQ (Description of Artificial Sequence: Synthetic gluten peptide) [motif of dominant glutenin 20mers, HLA DQ8]", "values": [{"measurement": "dominance among five subjects", "setting": "[1]", "result": "dominant in at least one of the five subjects"}]}, {"substance": "QIPEQLRCPAIHSVVQ (Description of Artificial Sequence: Synthetic gluten peptide)", "values": [{"measurement": "subjects with positive responses", "setting": "[3]; [5]", "result": "3/18"}]}, {"substance": "QLQPFPQPELPYPQPQL (Description of Artificial Sequence: Synthetic gluten peptide) [Peptide P04724E]", "values": [{"measurement": "sum of the median ELISPOT responses to P04724E and 626fEE relative to response to Combitope", "setting": "[4]; after barley challenge, n=13", "result": 102, "unit": "%"}, {"measurement": "sum of the median ELISPOT responses to P04724E and 626fEE relative to response to Combitope", "setting": "[4]; after rye challenge, n=17", "result": 99, "unit": "%"}, {"measurement": "median ELISPOT response as percent of response to Combitope", "setting": "[4]", "result": 89, "unit": "%"}]}, {"substance": "QLRCPAIHSVVQAIIL (Description of Artificial Sequence: Synthetic gluten peptide)", "values": [{"measurement": "subjects in whom peptide was dominant (>70% maximal response) after oats challenge", "setting": "[3]; deamidated by tTG, 18 subjects", "result": "4/18"}]}, {"substance": "QPEQPFPQPEQPFPWQP (Description of Artificial Sequence: Synthetic gluten peptide) [Peptide 626fEE]", "values": [{"measurement": "sum of the median ELISPOT responses to P04724E and 626fEE relative to response to Combitope", "setting": "[4]; after barley challenge, n=13", "result": 102, "unit": "%"}, {"measurement": "sum of the median ELISPOT responses to P04724E and 626fEE relative to response to Combitope", "setting": "[4]; after rye challenge, n=17", "result": 99, "unit": "%"}, {"measurement": "median ELISPOT response as percent of response to Combitope", "setting": "[4]", "result": 70, "unit": "%"}]}, {"substance": "QPFPQPQQPQQP (Description of Artificial Sequence: Synthetic gluten peptide)", "values": [{"measurement": "subjects in whom peptide stimulated >70% of maximal response (dominant)", "setting": "[2]", "result": "4/14"}]}, {"substance": "QPPFWRQQP (Description of Artificial Sequence: Synthetic gluten peptide) [motif of dominant glutenin 20mers, HLA DQ8]", "values": [{"measurement": "dominance among five subjects", "setting": "[1]", "result": "dominant in at least one of the five subjects"}]}, {"substance": "QYEVIRSLVLRTLPNM (Description of Artificial Sequence: Synthetic gluten peptide)", "values": [{"measurement": "subjects in whom peptide stimulated >70% of maximal response (dominant)", "setting": "[2]", "result": "one"}]}, {"substance": "QYQPYPEQEQPILQQQ (Description of Artificial Sequence: Synthetic gluten peptide)", "values": [{"measurement": "subjects in whom peptide was dominant (>70% maximal response) after oats challenge", "setting": "[3]; deamidated by tTG, 18 subjects", "result": "3/18"}]}, {"substance": "RTTTSVPFD (Description of Artificial Sequence: Synthetic gluten peptide) [motif of dominant glutenin 20mers, HLA DQ8]", "values": [{"measurement": "dominance among five subjects", "setting": "[1]", "result": "dominant in at least one of the five subjects"}]}, {"substance": "RTTTSVPFGVGTGVGA (Description of Artificial Sequence: Synthetic gluten peptide)", "values": [{"measurement": "subjects in whom peptide stimulated >70% of maximal response (dominant)", "setting": "[2]", "result": "1/14"}]}, {"substance": "SEQYQPYPEQQEPFVQ (Description of Artificial Sequence: Synthetic gluten peptide) [peptide 1490, avenin peptide reported in Arentz-Hansen, PLoS Medicine 2004, reference compound]", "values": [{"measurement": "subjects with far weaker response", "setting": "[3]; after oats challenge", "result": 5}, {"measurement": "subjects with strong positive response", "setting": "[3]; after oats challenge", "result": "one"}]}, {"substance": "SGQGVSQSQQQSQQQ (Description of Artificial Sequence: Synthetic gluten peptide)", "values": [{"measurement": "subjects in whom peptide stimulated >70% of maximal response (dominant)", "setting": "[2]", "result": "2/14"}]}]}
